Measurements from ChEMBL document CHEMBL5506055, “Hit-to-Lead Optimization of the Natural Product Oridonin as Novel NLRP3 Inflammasome Inhibitors with Potent Anti-Inflammation Activity” (J Med Chem, 2024).
Calls of active or inactive are those of the source. The rule behind the calls is not given here.

Key:
Mus musculus [1] = assay: Antiinflammatory activity in C57BL/6 mouse model of arthritis assessed as reduction in MSU-induced TNFalpha secretion at 12.5 to 25 mg/kg, iv measured upto 24 hrs; type: functional, organism-based; conditions: dose 12.5-25 mg/kg
[2] = target: NACHT, LRR and PYD domains-containing protein 3 (Mus musculus) (UniProt Q8R4B8); assay: Inhibition of NLRP3 inflammasome activation in LPS-induced C57BL/6 mouse BMDMs assessed as reduction in NLRP3 mRNA level at 50 to 200 nM preincubated for 24 hrs followed by LPS addition for 4 hrs by qRT-PCR analysis; type: cell-based; conditions: BMDM, dose 50-200 nM, time 28.0 hrs
[3] = target: NACHT, LRR and PYD domains-containing protein 3 (Mus musculus) (UniProt Q8R4B8); assay: Inhibition of NLRP3 inflammasome activation in LPS-induced C57BL/6 mouse BMDMs assessed as reduction in IL-1beta level preincubated with Pam3CSK4 for 3 hrs followed by compound addition for 30 mins and further LPS transfected with Lipo-3000 for 16 hrs by ELISA; type: cell-based; conditions: BMDM, dose 50-200 nM, time 16.5 hrs
[4] = target: NACHT, LRR and PYD domains-containing protein 3 (Mus musculus) (UniProt Q8R4B8); assay: Binding affinity to NLRP3 in mouse BMDMs at 100 uM incubated for 30 mins by CETSA; type: cell-based; conditions: BMDM
[5] = AUC in ICR mouse at 1 mg/kg, iv measured upto 24 hrs by LC-MS/MS method; type: ADME, organism-based; conditions: in vivo, iv, 1 mg/kg, 24 h
Mus musculus [6] = assay: Antiinflammatory activity in C57BL/6 mouse model of arthritis assessed as reduction in MSU-induced pro-caspase 1 expression in joints at 12.5 to 25 mg/kg, iv measured upto 24 hrs; type: functional, organism-based; conditions: dose 12.5-25 mg/kg
[7] = target: NLRP3-NEK7 (Mus musculus) (UniProt Q8R4B8+Q9ES74); assay: Inhibition of NLRP3/NEK7 protein-protein interaction in LPS/ATP-induced C57BL/6 mouse BMDMs at 200 nM preincubated with LPS for 4 hrs followed by compound addition for 30 mins and further stimulated with ATP for 30 mins by Western blotting analysis; type: cell-based; conditions: BMDM, time 1.0 hrs
[8] = Stability in mouse liver microsomes assessed as half life preincubated for 5 mins with NADPH followed by compound addition and measured upto 120 mins by LC-MS/MS analysis; type: ADME, Microsome; conditions: time < 125 min
[9] = target: NACHT, LRR and PYD domains-containing protein 3 (Mus musculus) (UniProt Q8R4B8); assay: (§1) Inhibition of NLRP3 inflammasome activation in LPS/ATP-induced C57BL/6 mouse BMDMs assessed as inhibition of ASC oligomerization by measuring reduction in NLRP3 expression at 50 to 200 nM preincubated with LPS for 4 hrs followed by compound addition for 30 mins and further stimulated with ATP for 30 mins by Western blotting analysis; type: cell-based; conditions: BMDM, dose 50-200 nM, time 1.0 hrs
[10] = target: NACHT, LRR and PYD domains-containing protein 3 (Mus musculus, UniProt Q8R4B8); assay: Inhibition of NLRP3 inflammasome activation in LPS/ATP-induced C57BL/6 mouse BMDMs assessed as reduction in IL-1beta secretion preincubated with LPS for 4 hrs followed by compound addition for 30 mins and further stimulated with ATP for 30 mins by ELISA; type: cell-based, BMDM
[11] = target: NACHT, LRR and PYD domains-containing protein 3 (Mus musculus) (UniProt Q8R4B8); assay: as §1, with “as” for “as inhibition of ASC oligomerization by measuring”, “IL-1beta secretion” for “NLRP3 expression”, “analysis relative to oridonin” for “analysis”; type: cell-based; conditions: BMDM, dose 50-200 nM, time 1.0 hrs
Mus musculus [12] = assay: Antiinflammatory activity in MSU-induced C57BL/6 mouse model of arthritis assessed as reduction in inflammatory cell infiltration at 12.5 to 25 mg/kg, iv measured after 24 hrs; type: functional, organism-based; conditions: dose 12.5-25 mg/kg
[13] = Stability in rat plasma assessed as half life measured upto 8 hrs; type: ADME, cell-free
BMDM = assay: Inhibition of mitochondrial damage in mouse BMDMs at 200 nM preincubated with LPS for 4 hrs followed by compound addition for 30 mins and further stimulated with ATP for 30 mins by confocal microscopic analysis; type: functional, cell-based; conditions: time 1.0 hrs
[14] = Oral bioavailability in ICR mouse at 10 mg/kg measured upto 24 hrs by LC-MS/MS method; type: ADME, organism-based; conditions: in vivo, po, 10 mg/kg, 24 h
[15] = target: NACHT, LRR and PYD domains-containing protein 3 (Mus musculus) (UniProt Q8R4B8); assay: Inhibition of NLRP3 inflammasome activation in LPS/ATP-induced C57BL/6 mouse BMDMs assessed as reduction in IL-1beta secretion at 200 nM preincubated with LPS for 4 hrs followed by compound addition for 30 mins and further stimulated with ATP for 30 mins by ELISA relative to control; type: cell-based; conditions: BMDM, time 1.0 hrs
[16] = Half-life in ICR mouse at 10 mg/kg, po measured upto 24 hrs by LC-MS/MS method; type: ADME, organism-based; conditions: in vivo
[17] = target: NACHT, LRR and PYD domains-containing protein 3 (Mus musculus) (UniProt Q8R4B8); assay: as §1, with “cleaved caspase-1 secretion” for “NLRP3 expression”; type: cell-based; conditions: BMDM, dose 50-200 nM, time 1.0 hrs
[18] = target: NACHT, LRR and PYD domains-containing protein 3 (Mus musculus) (UniProt Q8R4B8); assay: Inhibition of NLRP3 inflammasome activation in LPS/nigericin-induced C57BL/6 mouse BMDMs at 200 nM preincubated with LPS for 4 hrs followed by compound addition for 30 mins and further stimulated with nigericin for 30 mins by ELISA; type: cell-based; conditions: BMDM, time 1.0 hrs
[19] = target: NACHT, LRR and PYD domains-containing protein 3 (Mus musculus) (UniProt Q8R4B8); assay: Inhibition of NLRP3 inflammasome activation in LPS/ATP-induced C57BL/6 mouse BMDMs assessed as reduction in maturation of pro-caspase-1 preincubated with LPS for 4 hrs followed by compound addition for 30 mins and further stimulated with ATP for 30 mins by ELISA; type: cell-based; conditions: BMDM, time 1.0 hrs
Mus musculus [20] = assay: Antiinflammatory activity in C57BL/6 mouse model of arthritis assessed as reduction in MSU-induced IL-1beta secretion at 12.5 to 25 mg/kg, iv measured upto 24 hrs; type: functional, organism-based; conditions: dose 12.5-25 mg/kg
[21] = target: NACHT, LRR and PYD domains-containing protein 3 (Mus musculus) (UniProt Q8R4B8); assay: Inhibition of NLRP3 inflammasome activation in LPS/ATP-induced C57BL/6 mouse BMDMs assessed as reduction in TNFalpha level at 1000 nM preincubated for 30 mins followed by LPS addition for 4 hrs and further ATP stimulation for 30 mins by ELISA; type: cell-based; conditions: BMDM, time 5.0 hrs
[22] = AUC in ICR mouse at 10 mg/kg, po measured upto 24 hrs by LC-MS/MS method; type: ADME, organism-based; conditions: in vivo, po, 10 mg/kg, 24 h
Mus musculus [23] = assay: Antiinflammatory activity in MSU-induced C57BL/6 mouse model of arthritis assessed as reduction in inflammatory cell infiltration at 100 mg/kg, po measured after 24 hrs; type: functional, organism-based
[24] = target: NACHT, LRR and PYD domains-containing protein 3 (Mus musculus) (UniProt Q8R4B8); assay: Inhibition of NLRP3 inflammasome activation in LPS/alum-induced C57BL/6 mouse BMDMs at 200 nM preincubated with LPS for 18 hrs followed by compound addition for 30 mins and further stimulated with alum for 8 hrs by ELISA; type: cell-based; conditions: BMDM, time 8.5 hrs
[25] = target: NACHT, LRR and PYD domains-containing protein 3 (Mus musculus) (UniProt Q8R4B8); assay: Inhibition of NLRP3 inflammasome activation in LPS/ATP-induced C57BL/6 mouse BMDMs assessed as reduction in IL-1beta secretion at 500 nM preincubated with LPS for 4 hrs followed by compound addition for 30 mins and further stimulated with ATP for 30 mins by ELISA relative to control; type: cell-based; conditions: BMDM, time 1.0 hrs
[26] = Stability in human plasma assessed as half life measured upto 8 hrs; type: ADME, cell-free
[27] = target: NACHT, LRR and PYD domains-containing protein 3 (Mus musculus) (UniProt Q8R4B8); assay: Inhibition of NLRP3 inflammasome activation in LPS/ATP-induced C57BL/6 mouse BMDMs assessed as reduction in pro-IL-1beta production at 50 to 200 nM preincubated with compound prior to LPS addition for 30 mins and further stimulated with ATP for 30 mins by Western blotting analysis; type: cell-based; conditions: BMDM, dose 50-200 nM, time 60.0 min
hERG (KCNH2) = hERG (KCNH2) (Homo sapiens, UniProt Q12809); assay: Inhibition of human ERG expressed in CHO cells at 40 uM relative to control; type: toxicity, cell-based; conditions: CHO cells that express human ERG
Chain of hERG (KCNH2) (Q12809 whole entry): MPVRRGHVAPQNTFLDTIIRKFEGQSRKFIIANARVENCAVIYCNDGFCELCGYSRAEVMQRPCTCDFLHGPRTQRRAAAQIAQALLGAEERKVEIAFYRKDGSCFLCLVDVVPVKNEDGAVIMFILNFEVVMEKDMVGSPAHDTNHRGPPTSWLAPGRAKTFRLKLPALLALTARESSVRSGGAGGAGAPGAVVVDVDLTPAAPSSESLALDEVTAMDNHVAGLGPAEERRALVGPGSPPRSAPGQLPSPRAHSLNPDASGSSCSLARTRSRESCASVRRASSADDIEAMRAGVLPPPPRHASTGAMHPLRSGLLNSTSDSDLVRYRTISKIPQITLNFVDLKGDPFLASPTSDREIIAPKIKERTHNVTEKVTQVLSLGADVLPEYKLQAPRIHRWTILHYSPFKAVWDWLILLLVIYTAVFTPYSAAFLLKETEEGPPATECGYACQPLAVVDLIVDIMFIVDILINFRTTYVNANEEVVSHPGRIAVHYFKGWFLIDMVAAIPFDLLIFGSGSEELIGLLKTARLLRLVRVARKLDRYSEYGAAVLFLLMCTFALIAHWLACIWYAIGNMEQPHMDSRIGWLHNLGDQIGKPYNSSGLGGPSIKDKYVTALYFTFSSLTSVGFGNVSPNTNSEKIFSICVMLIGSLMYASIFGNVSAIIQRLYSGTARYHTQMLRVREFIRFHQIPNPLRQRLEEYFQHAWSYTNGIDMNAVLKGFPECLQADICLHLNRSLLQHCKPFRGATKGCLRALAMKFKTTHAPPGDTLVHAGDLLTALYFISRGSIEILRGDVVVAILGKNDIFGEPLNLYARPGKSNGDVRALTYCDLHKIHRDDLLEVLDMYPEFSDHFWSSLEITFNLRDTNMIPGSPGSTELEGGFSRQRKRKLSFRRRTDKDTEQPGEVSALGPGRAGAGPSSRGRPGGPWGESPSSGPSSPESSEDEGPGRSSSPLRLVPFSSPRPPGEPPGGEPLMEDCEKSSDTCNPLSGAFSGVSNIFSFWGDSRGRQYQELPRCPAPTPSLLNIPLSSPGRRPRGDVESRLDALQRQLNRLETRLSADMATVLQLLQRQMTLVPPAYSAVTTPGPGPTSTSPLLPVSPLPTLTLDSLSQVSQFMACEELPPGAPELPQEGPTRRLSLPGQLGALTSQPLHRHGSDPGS

Chain of NACHT, LRR and PYD domains-containing protein 3 (Mus musculus) (Q8R4B8 whole entry, the tested form may be a part): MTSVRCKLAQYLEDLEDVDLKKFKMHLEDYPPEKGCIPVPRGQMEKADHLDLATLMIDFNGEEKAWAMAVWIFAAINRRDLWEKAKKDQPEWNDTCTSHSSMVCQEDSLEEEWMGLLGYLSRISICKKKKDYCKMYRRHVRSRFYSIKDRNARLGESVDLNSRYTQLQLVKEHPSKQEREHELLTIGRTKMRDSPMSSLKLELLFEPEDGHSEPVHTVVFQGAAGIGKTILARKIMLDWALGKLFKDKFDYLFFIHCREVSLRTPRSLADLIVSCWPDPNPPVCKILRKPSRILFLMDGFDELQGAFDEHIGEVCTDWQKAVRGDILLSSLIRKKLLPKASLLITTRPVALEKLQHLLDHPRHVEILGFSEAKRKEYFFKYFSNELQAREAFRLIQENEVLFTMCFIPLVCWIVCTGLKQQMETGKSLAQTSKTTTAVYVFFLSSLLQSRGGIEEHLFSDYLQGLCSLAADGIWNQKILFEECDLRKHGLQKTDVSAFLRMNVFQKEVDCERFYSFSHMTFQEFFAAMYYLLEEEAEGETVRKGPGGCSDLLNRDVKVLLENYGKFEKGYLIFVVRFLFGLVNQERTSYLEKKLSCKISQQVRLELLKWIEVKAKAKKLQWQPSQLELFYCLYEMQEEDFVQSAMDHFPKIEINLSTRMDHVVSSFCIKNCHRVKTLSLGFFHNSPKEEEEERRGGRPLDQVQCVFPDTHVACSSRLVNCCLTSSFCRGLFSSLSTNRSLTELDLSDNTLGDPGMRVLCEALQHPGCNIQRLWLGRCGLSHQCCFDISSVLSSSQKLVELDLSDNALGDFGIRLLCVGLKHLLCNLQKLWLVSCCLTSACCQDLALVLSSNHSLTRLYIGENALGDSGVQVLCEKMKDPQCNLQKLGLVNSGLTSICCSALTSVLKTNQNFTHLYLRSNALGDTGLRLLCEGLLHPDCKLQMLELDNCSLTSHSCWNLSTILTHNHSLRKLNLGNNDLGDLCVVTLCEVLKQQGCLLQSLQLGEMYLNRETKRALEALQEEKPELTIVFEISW
Chain of NACHT, LRR and PYD domains-containing protein 3 (Q8R4B8 whole entry, the tested form may be a part): as above
Chain of NLRP3-NEK7 (Mus musculus) (Q8R4B8 whole entry, looked up): as the sequence (Q8R4B8 whole entry, the tested form may be a part) above
Chain of NLRP3-NEK7 (Mus musculus) (Q9ES74 whole entry, looked up): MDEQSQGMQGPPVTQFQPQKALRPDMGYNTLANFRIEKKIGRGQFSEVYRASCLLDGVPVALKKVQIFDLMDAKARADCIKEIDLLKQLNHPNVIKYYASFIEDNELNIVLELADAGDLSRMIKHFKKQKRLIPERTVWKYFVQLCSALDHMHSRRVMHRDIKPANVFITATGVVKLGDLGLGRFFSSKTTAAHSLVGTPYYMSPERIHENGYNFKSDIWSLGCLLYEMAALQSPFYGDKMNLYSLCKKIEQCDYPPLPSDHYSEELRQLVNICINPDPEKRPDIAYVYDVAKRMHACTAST

C=C1C(=O)[C@]23[C@H](O)[C@H]1CC[C@H]2[C@]12C=CCC(C)(C)[C@H]1[C@H](O)[C@@]3(OCCC(=O)O)OC2
Activity (Mus musculus [1]): Active
inhibition [2]: inactive
inhibition [3]: Dose-Dependent Effect
Activity [4]: Active
AUC [5]: 242 ng·h/mL
Activity (Mus musculus [6]): inactive
inhibition [7]: Active
half-life [8]: 3.07 h
inhibition [9]: inactive
IC50 [10]: 77.2 nM
inhibition [11]: Active
Activity (Mus musculus [12]): Active
half-life [13]: 6.21 h
inhibition (BMDM): inactive
F [14]: 9%
inhibition [15]: 87.5%
half-life [16]: 1.6 h
inhibition [17]: Active
inhibition [18]: Active
inhibition [19]: Dose-Dependent Effect
Activity (Mus musculus [20]): Active
inhibition [21]: Active
AUC [22]: 525.5 ng·h/mL
Activity (Mus musculus [23]): Active
inhibition [24]: Active
inhibition [25]: 95.3%
half-life [26]: 6.92 h
inhibition [27]: Active
inhibition at 40 µM (hERG (KCNH2)): 22%
